Here are results for 24 compounds from patent publication US9512091B2, “Compositions and methods for the modulation of specific amidases for N-acylethanolamines for use in the therapy of inflammatory diseases” (Epitech Group S.r.l., priority 2012, dated 2016).

Data set [1] is described as follows: Solubility of the prepared product. Type of data set: physicochemical. Conditions: for solubility / Solubility in ethanol: ethanol; for solubility: organic solvent or mixture.
The target in data set [2] is T1, NAAA (N-Acylethanolamine Hydrolizing Acid Amidase) (Homo sapiens, UniProt Q02083).
T1 construct: expressed in transfected cells; host or cells: HEK cells permanently transfected with NAAA (HEK-NAAA); 12000 g membrane fraction
T1 sequence (Q02083 29-359): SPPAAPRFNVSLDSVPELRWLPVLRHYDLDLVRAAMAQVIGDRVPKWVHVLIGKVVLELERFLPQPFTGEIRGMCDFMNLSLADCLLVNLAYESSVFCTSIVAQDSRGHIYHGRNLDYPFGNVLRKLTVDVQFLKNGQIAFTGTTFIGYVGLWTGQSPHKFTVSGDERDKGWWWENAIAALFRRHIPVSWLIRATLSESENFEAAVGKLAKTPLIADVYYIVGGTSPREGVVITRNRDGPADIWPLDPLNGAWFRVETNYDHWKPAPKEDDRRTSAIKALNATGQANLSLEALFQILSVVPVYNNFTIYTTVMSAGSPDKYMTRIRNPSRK
The data set is described as follows: Activity on the NAAA enzyme, membranes of HEK-NAAA cells, [14C]PEA hydrolysis. Type of data set: biochemical. Conditions: HEK-NAAA membranes 50 μg/sample, [14C]PEA 20 μM, 30 min at 37° C.; mean of 10 experiments; read-out: Inhibition of NAAA IC50 (after 30 min incubation). As for the experimental part:
The effect of the samples being analysed on the enzymatic activity of the NAAA (N-Acylethanolamine Hydrolizing Acid Amidase) was determined on suitably permanently transfected cellular lines (HEK-NAAA). The cells were homogenised using TRIS-HCl 20 Mm (pH 7.4) by means of dounce. Subsequently a mild centrifugation (10 min, 800 g, 4° C.) was carried out for removing the cellular debris. The cellular fraction containing the membranes was obtained by means of subsequent centrifugation (30 min, 12000 g, 4° C.). The membranes (50 μg/sample) were incubated for 30 min at 37° C. with [^14C]PEA (20 μM; 10000 cpm/sample; 5 nCi/nmols) in presence and in absence of the substances to be tested. The incubation was blocked by adding 2 volumes of CHCl3/CH3OH (1:1/v:v). The radioactivity associated to the aqueous phase containing [^14C]Ethanolamine (produced by the hydrolysis of the radioactive substrate) was determined by means of β-Counter (Beckman Counter, LS6500 Scintillation Counters, Milan).

The next data set has as its system hepatic esterases. Conditions: prior-art statement on poor selectivity; cited from earlier work.
For data set [3], the system named is edema of the legs induced by sub-plantar carrageenan. The data set is described as follows: Carrageenan edema of the legs, plantar volume by plethysmometer. Type of data set: in vivo, rat. Conditions: for increase of plantar volume in percentage with respect to carrageenan alone (carrageenan=100): rat, PEA 33 μM/Kg, PEA-OXA (30 mg/Kg) μM/Kg, 5 experiments. As for the experimental part: The experimental model of edema of the legs is induced through sub-plantar injection of a carrageenan solution (containing 50 μl of sterile saline solution and 1% of carrageenan) in the right leg of the animal (rat).
At specific time intervals the plantar volume is measured by means of a plethysmometer (Ugo Basile, Milan, Italy). The increase of the plantar volume is evaluated as the difference between the value obtained in the specific time intervals and the volume at the basal (time 0) measured immediately before the administration of carrageenan.
The data obtained from 5 different experiments, each involving 10 animals per group, were tabled (tab 2) in percentage with respect to the animals treated with carrageenan alone (carrageenan=100): […]
On the technique in general: In the carrageenan paw model, swelling and tenderness develop within hours.

Structures are written as SMILES.

In the case of `CCCCCCCCCCCCCCC1=NCCO1` [Example 7, 2-tetradecyl-2-oxazoline], the melting point (commonly the temperature, or range, at which the solid turns liquid) lay within 41 to 44 °C. In data set [1], the solubility (as a rule, how much of the substance goes into solution per volume) was greater than 10000 µg/mL and the Solubility in water entry is recorded as “poorly soluble”.

As to `CCCCCCCCCCCCCC(=O)NCCO` [MEA, Myristoyl ethanolamide, reference compound], the IC50 – broadly, the concentration at which inhibition is half-maximal – in data set [2] is greater than 50 µM.

`NC(=O)c1cccc(-c2cccc(OC(=O)NC3CCCCC3)c2)c1` [URB597, cyclohexyl carbamic acid 3′-carbamoyl-biphenyl-3-yl ester]: in the data set on hepatic esterases, the “inhibition of hepatic esterases” value is recorded as “more than 40%”.

As for `CCCCCCCCCCCCCCCC(=O)NCCO` [PEA, Palmitoylethanolamide, reference compound], the IC50 in data set [2] was greater than 50 µM. The “increase of plantar volume in percentage with respect to carrageenan alone (carrageenan=100)” value (shortened to “increase of plantar volume in percentage”) in data set [3] (30 min) is 89.2 ± 2.2%; in data set [3] (1 hr), 82 ± 1.8%; in data set [3] (2 hrs) it was 78.3 ± 1.6%; in data set [3] (3 hrs) it was 73.9 ± 2.1%; in data set [3] (4 hrs), 70.1 ± 1.9%; in data set [3] (5 hrs), 54.5 ± 0.63%. In data set [3] (6 hrs), the “increase of plantar volume in percentage” value worked out at 32.9 ± 0.41%.

Consider `CCCCCCCCCCCCCCCC1=NC(CO)CO1` (centres unmarked) [Example 13, 2-pentadecyl-4-hydroxymethyl-2-oxazoline], for which, in data set [1], the solubility is greater than 10000 µg/mL and the Solubility in water result is on record as “poorly soluble”.

For `CCCCCCCCCCCCCCCCCC(=O)NCCO` [SEA, Stearylethanolamide, reference compound], in data set [2], the IC50 is greater than 50 µM.

`CCCCCCCCCCCCCCCC1=NC(C(=O)OC)CO1` (centres unmarked) [Example 14, 2-pentadecyl-4-methyloxycarbonyl-2-oxazoline]: in data set [1], the solubility was greater than 10000 µg/mL and the Solubility in water entry is “poorly soluble”.

With `CCCCCCCCCCCCCCCC1=NCCO1` [PEA-OXA, 2-pentadecyl-2-oxazoline], the solubility in data set [1] was greater than 10000 µg/mL. The Solubility in water result in data set [1] is “poorly soluble”. Further, in data set [2], the IC50 was found to be 24.2 ± 0.018 µM. For the same compound, the “increase of plantar volume in percentage” value in data set [3] (30 min) is 88.2 ± 2.0%; in data set [3] (1 hr), 81.2 ± 2.1%; in data set [3] (2 hrs), 66.6 ± 0.78%; in data set [3] (3 hrs), 59.6 ± 0.62%; in data set [3] (4 hrs), 51.4 ± 0.58%; in data set [3] (5 hrs), 43.0 ± 0.42%. Moreover, the “increase of plantar volume in percentage” value in data set [3] (6 hrs) was determined as 31.2 ± 0.22%. Moreover, the “anti-inflammatory activity with respect to PEA” value in data set [3] (rat carrageenan edema, especially between 2 and 5 hours from carrageenan) was “greater anti-inflammatory activity”.

In the case of `CCCCCCCCCCCCCCCC1=NC(C(=O)O)CO1` (centres unmarked) [Example 14b, 2-pentadecyl-4-carboxy-2-oxazoline], in data set [1], the solubility is greater than 10000 µg/mL and the Solubility in water entry was “poorly soluble”.

On to `CCCCCCCCCCCCCCCC1=NCCCO1` [Example 15, 2-pentadecyl-2-oxazine], for which, in data set [1], the Solubility in ethanol was greater than 10000 µg/mL and the Solubility in water result is reported as “poorly soluble”.

As for `CCCCCCCCCCCCCCCCCC1=NCCO1` [SEA-OXA, 2-heptadecyl-2-oxazoline], the melting point fell in the range of 51 to 53 °C. For the same compound, in data set [1], the solubility was greater than 10000 µg/mL and the Solubility in water result was “poorly soluble”. In data set [2], the IC50 was 35 ± 0.021 µM.

Regarding `CCCCCCCCCCCCCC1=NCCO1` [MEA-OXA, 2-tridecyl-2-oxazoline], in data set [1], the solubility was greater than 10000 µg/mL and the Solubility in water entry is “poorly soluble”. Besides, the IC50 in data set [2] was determined as 41.5 ± 0.032 µM.

For `CCCCCCCCC=CCCCCCCCC1=NCCO1` [OEA-OXA, 2-(8-heptadecenyl)-2-oxazoline], in data set [1], the solubility was greater than 10000 µg/mL and the Solubility in water entry is “poorly soluble”. Also, the IC50 in data set [2] was determined as 38.4 ± 0.034 µM.

Regarding `CCCCCCCCCCCCCCCC1=NCCS1` [Example 16, 2-pentadecyl-2-thiazoline], in data set [1], the solubility was greater than 10000 µg/mL and the Solubility in water entry was “poorly soluble”.

As for `CCCCCCCCCCCCCCCC1=NC[C@@H](C)O1` [Example 9, 2-pentadecyl-5(R)-methyl-2-oxazoline], in data set [1], the solubility is greater than 10000 µg/mL and the Solubility in water result is given as “poorly soluble”.

With `CCCCCCCCCCCCCCCC1=NC[C@H](C)O1` [Example 10, 2-pentadecyl-5(S)-methyl-2-oxazoline], in data set [1], the solubility is greater than 10000 µg/mL and the Solubility in water entry is recorded as “poorly soluble”.

`CCCCCCCC/C=C\CCCCCCCC(=O)NCCO` [OEA, Oleoylethanolamine, reference compound]: the IC50 in data set [2] was greater than 50 µM.

Turning to `CCCCCCCCCCCCCCCC1=NC(C)(C)CO1` [Example 5, 2-pentadecyl-4,4-dimethyl-2-oxazoline], in data set [1], the solubility was greater than 10000 µg/mL and the Solubility in water result was “poorly soluble”.

As for `CCCCCCCCCCCCCCCC1=NC(CO)(CO)CO1` [Example 6, 2-pentadecyl-4,4-bis(hydroxymethyl)-2-oxazoline], in data set [1], the solubility was greater than 10000 µg/mL and the Solubility in water result is listed as “poorly soluble”.

Turning to `CCCCCCCCCCCCCCCC1=N[C@H](C)CO1` [Example 11, 2-pentadecyl-4(R)-methyl-2-oxazoline], in data set [1], the solubility was greater than 10000 µg/mL and the Solubility in water result is “poorly soluble”.

Regarding `CCCCCCCCCCCCCCCC1=N[C@@H](C)CO1` [Example 12, 2-pentadecyl-4(S)-methyl-2-oxazoline], in data set [1], the solubility was greater than 10000 µg/mL and the Solubility in water result is “poorly soluble”.

Regarding `CCCCCCCCCCCCCCCC1=NCCO1` [PEA-OXLE], in data set [1], the Solubility in ethanol was greater than 10000 µg/mL and the Solubility in water result is given as “poorly soluble”. Further, the half-maximal inhibitory concentration (IC50) in data set [2] amounted to 32.1 ± 0.031 µM.

Take `CCCCCCCCCCCCCCCCC1=NCCO1` [Example 8, 2-hexadecyl-2-oxazoline]: the melting point is 49 to 51 °C. In data set [1], the solubility is greater than 10000 µg/mL and the Solubility in water result is reported as “poorly soluble”.

Turning to `O=C(CCc1ccccc1)N[C@H]1COC1=O` [(S)-N-(2-oxo-3-oxetanyl)-3-phenylpropionamide, reference compound], in data set [2], the half-maximal inhibitory concentration (IC50) was 0.42 µM.
